Results published in patent US20240294465A1, “NOVEL ANTI-FIBROTIC DRUGS” (HELMHOLTZ ZENTRUM MUNCHEN - DEUTSCHES FORSCHUNGSZENTRUM FUR …, priority 2021, published 2024).

What was measured:
phLFs = test: Cytotoxicity assays (MTT, live/dead calcein, caspase 3/7); type: cell-based; conditions: confluent phLFs+TGFβ1
From the text: Viability/Cytotoxicity Assay Kit for Animal Live and Dead Cells was obtained from Biotium, Cat. No. 3002). CellEvent™ Caspase 3/7 Green Detection Reagent was acquired from Invitrogen, Cat. No. C10423. For MTT-assays, Thiazolyl Blue Tetrazolium was bought from SigmaAldrich (M5655-1G). All these kits and assays were used according to the manufacturer's instructions.

[1] = system: ECM deposition of collagen I, collagen V and fibulin 1 by phLFs+TGFβ1; test: 3D ECM deposition assay (collagen I, collagen V, fibulin 1), dose-response and live imaging; type: cell-based, human; conditions: phLFs+TGFβ1, during 48 hours
Experimental: phLFs were cultured in DMEM F-12 medium with 20% fetal bovine serum (FBS) and antibiotic supplement as mentioned above. Cells were seeded with 6000 cells/well in 384-well CellCarrier plates (Perkin Elmer, Cat #6007550). Following overnight incubation, cells were starved in serum-reduced medium (1% FBS with 0.1 mM 2-phosphoascorbate (Sigma, Cat #49752)) for 24 h. Afterwards, cells were treated with TGFβ1 (1 ng/ml) or vehicle, and additionally small molecules or appropriate vehicle controls were added. […] Fluorescenceconjugation of the collagen type 1 antibody was done by using the AlexaFluor-555 Protein Labeling Kit (Invitrogen, Cat #A20174) according to manufacturer's instructions. […]
Following fixation, the automated imaging was achieved by using aconfocal laser scanning microscope (LSM710, Zeiss) with automated focus detection for three-dimensional image acquisition (1024 px×1024 px×9 px which equals a dimension of 1417 μm×1417 μm×16 μm). For post-acquisition analysis images were imported into IMARIS software (Bitplane) and volume detection or alternatively quantification of the mean fluorescence intensity, as well as Hoechst-stained cell nuclei were automatically counted by using Imaris' spot detection algorithm. […]

[2] = system: profibrotic gene signatures in phLFs+TGFβ1; test: Microarray transcriptomics and UMAP regulation pattern clustering in phLFs; type: cell-based, human; conditions: phLFs+TGFβ1+example 84
Experimental: Total RNA was isolated PEQGold Total RNA Kit (PeqLab) according to the manufacturer's instructions including gDNA elimination. The Agilent 2100 Bioanalyzer was used to assess RNA quality and RNA with RIN>7 was used for microarray analysis. Total RNA (150 ng) was amplified using the WT PLUS Reagent Kit (Thermo Fisher Scientific Inc., Waltham, USA). Amplified cDNA was hybridized on Human ClariomS arrays (Thermo Fisher Scientific). Staining and scanning (GeneChip Scanner 3000 7G) was done according to manufacturer's instructions. Transcriptome Analysis Console (TAC; version 4.0.0.25; Thermo Fisher Scientific) was used for quality control and to obtain annotated normalized SST-RMA gene-level data. Statistical analyses were performed by utilizing the statistical programming environment R (R Development Core Team Ref1). Genewise testing for differential expression was done employing the paired limma t-test and Benjamini-Hochberg multiple testing correction (FDR<10%). To reduce background, gene sets were filtered using DABG p-values<0.05 in at least one sample per pair and in at least two of three pairs per analysis. […] Then, clusters of genes were extracted. Gene/protein interactions were visualized using the String Database (www.stringdb.org).

[3] = system: human lung organoids derived from human lung progenitor cells; test: Human lung organoid growth (colony formation efficiency); type: cell-based; conditions: 10 μM, 14 days in culture

SMILES: CCCCOc1ccccc1NC(=O)/C=C/c1ccc(OC)c(OC)c1 [Example 84, (E)-N-(2-butoxyphenyl)-3-(3,4-dimethoxyphenyl)acrylamide]
- viability (calcein staining) (phLFs): proving viability
- dynamic deposition of collagen I and fibulin 1 (MFI, live imaging) [1]: inhibition of ECM deposition
- gene-set enrichment analysis (collagen formation, extracellular matrix organization, smooth-muscle contraction) [2]: negative enrichment for profibrotic gene signatures
- organoid growth [3]: inhibited organoid growth
- viability of lung progenitor cells (calcein / ethidium homodimer III) [3]: many lung progenitor cells are still viable
